Structures are written as SMILES.

IC50 and inhibition in vivo data for one compound are collected here from US12473298B2, “Amide compounds, preparation method therefor, and use thereof in the medical field” (Shanghai Synergy Pharmaceutical Sciences Co., Ltd., priority 2019, dated 2025).

Test [1] relates to human diffuse large B-cell lymphoma cells (Karpas 422 cell). The experiment in a line: Karpas 422 cell proliferation, Calcein AM staining. The conditions noted are these: Homo sapiens, KARPAS-422; data of 14th day; read-out: Karpas422 Proliferation IC50 Nanomoles per Liter. Type of test: cell-based.
The target of another test is wild-type EZH2 (Homo sapiens (Human), UniProt Q15910). The experiment in a line: radiometric assay, activity to wild-type EZH2 of PRC2. Conditions: read-out: Wild-type EZH2 IC50 Nanomoles per Liter.
Another test has as its target Mutant type EZH2(Y641N) (Homo sapiens (Human), UniProt Q15910, Y641N). Description: AlphaLISA, mutant type PRC2 complex EZH2(Y641N). The format is biochemical. The conditions noted are these: read-out: Mutant type EZH2(Y641N) IC50 Nanomoles per Liter. (Alpha assays give light when donor and acceptor beads are brought close together.)
For the next test, the target named is Mutant type EZH2(A677G) (Homo sapiens (Human), UniProt Q15910, A677G). Description: AlphaLISA, mutant type PRC2 complex EZH2(A677G). Type of test: biochemical. The conditions noted are these: read-out: Mutant type EZH2(A677G) IC59 Nanomoles per Liter.
Another test has as its target Mutant type EZH2(Y641F) (Homo sapiens (Human), UniProt Q15910, Y641F). The experiment in a line: AlphaLISA, mutant type PRC2 complex EZH2(Y641F). Type of test: biochemical. Conditions: read-out: Mutant type EZH2(Y641F) IC50 Nanomoles per Liter.
Test [2] relates to human diffuse large cell lymphoma B lymphocytes (Pfeiffer cell). The experiment in a line: Pharmacodynamic experiment, Pfeiffer transplanted tumor model in mice. Conditions: Mus musculus, Pfeiffer, po, 504 h, intragastrically, once a day for 21 days, read-out: inhibited tumor growth. The format is in vivo, mice (beige SCID).
Protocol: A certain amount of compound was weighted and dissolved in 0.1% Tween under vortex and ultrasound, and 0.5% carboxymethyl cellulose sodium (CMC-NA) solution was added to form a uniform solution.
Under sterile conditions, human diffuse large cell lymphoma B lymphocytes (Pfeiffer cell) in logarithmic growth stage were digested and mixed with Matrigel and transplanted subcutaneously on the right back of mice (beige SCID) with severe combined immunodeficiency disease.
The test system is the same in test [3]. The experiment in a line: Pfeiffer cell proliferation, Calcein AM staining. The format is cell-based. Conditions: Homo sapiens, Pfeiffer; data of 14th day; read-out: Pfeiffer Proliferation IC50 Nanomoles per Liter.
Description: The diffuse large cell lymphoma B lymphocytes (Pfeiffer cells) were collected and counted when growing well.

Chain of Mutant type EZH2(A677G) (Q15910 whole entry A677G): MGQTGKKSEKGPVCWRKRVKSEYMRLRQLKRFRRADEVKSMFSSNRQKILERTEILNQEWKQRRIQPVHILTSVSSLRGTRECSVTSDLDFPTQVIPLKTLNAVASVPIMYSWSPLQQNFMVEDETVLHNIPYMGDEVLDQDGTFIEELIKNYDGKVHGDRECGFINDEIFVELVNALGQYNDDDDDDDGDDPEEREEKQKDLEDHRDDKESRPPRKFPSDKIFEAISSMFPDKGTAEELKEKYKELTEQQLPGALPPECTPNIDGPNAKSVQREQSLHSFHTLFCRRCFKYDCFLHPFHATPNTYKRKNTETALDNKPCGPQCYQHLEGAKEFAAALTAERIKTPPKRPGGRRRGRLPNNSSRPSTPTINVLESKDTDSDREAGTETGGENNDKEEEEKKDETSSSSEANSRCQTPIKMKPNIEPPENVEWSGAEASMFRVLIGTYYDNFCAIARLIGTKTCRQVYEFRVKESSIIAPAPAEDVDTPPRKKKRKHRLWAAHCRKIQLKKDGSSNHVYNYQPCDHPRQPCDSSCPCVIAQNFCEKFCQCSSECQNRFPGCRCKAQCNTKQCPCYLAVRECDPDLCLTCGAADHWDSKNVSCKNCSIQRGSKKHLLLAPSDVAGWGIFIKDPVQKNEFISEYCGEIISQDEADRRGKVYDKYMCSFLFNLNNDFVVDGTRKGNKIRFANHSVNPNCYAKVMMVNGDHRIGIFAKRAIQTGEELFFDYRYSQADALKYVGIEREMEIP
Chain of Mutant type EZH2(A677G) (O75530 whole entry partner): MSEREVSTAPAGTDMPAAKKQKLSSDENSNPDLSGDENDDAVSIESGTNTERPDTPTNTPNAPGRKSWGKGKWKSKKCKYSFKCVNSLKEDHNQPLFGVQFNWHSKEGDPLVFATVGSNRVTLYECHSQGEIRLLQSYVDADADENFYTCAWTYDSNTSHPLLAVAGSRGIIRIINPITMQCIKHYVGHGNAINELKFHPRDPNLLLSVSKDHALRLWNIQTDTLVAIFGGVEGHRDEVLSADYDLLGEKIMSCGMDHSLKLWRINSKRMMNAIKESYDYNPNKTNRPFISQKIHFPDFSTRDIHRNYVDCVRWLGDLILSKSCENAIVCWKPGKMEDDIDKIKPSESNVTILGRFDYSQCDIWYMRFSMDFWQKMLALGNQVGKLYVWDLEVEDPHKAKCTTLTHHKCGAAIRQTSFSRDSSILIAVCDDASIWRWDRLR
Chain of Mutant type EZH2(A677G) (Q15022 whole entry partner): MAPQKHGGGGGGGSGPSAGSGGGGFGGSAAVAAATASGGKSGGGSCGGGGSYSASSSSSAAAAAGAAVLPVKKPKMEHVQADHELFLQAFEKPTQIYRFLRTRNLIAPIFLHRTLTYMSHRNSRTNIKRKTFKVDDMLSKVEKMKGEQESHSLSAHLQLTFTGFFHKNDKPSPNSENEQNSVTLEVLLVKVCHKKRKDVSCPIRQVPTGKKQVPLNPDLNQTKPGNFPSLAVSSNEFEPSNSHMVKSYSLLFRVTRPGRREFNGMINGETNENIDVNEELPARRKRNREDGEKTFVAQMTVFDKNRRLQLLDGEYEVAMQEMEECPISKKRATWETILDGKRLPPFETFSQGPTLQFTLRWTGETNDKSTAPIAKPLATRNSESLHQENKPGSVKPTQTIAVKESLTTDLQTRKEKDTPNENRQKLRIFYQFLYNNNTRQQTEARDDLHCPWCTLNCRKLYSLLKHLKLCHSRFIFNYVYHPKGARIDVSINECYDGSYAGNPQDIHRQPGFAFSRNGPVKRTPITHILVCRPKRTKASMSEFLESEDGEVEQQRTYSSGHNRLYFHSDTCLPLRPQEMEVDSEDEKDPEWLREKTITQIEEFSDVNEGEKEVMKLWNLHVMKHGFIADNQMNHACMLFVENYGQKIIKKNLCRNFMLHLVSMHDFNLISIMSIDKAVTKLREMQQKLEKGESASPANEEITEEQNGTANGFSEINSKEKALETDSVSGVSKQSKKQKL
Chain of Mutant type EZH2(A677G) (Q09028 whole entry partner): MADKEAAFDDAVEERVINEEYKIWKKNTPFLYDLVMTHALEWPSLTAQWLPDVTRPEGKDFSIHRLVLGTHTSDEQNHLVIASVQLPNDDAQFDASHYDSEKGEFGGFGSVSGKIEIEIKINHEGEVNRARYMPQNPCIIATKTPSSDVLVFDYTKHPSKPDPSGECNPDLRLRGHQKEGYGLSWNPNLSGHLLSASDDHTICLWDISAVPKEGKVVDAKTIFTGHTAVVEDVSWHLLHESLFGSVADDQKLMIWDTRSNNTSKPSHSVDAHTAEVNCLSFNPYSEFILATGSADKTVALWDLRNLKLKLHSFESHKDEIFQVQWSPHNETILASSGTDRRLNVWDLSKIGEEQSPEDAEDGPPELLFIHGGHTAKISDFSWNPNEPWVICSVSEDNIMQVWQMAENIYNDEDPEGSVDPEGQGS
Chain of Mutant type EZH2(A677G) (Q6ZN18 whole entry partner): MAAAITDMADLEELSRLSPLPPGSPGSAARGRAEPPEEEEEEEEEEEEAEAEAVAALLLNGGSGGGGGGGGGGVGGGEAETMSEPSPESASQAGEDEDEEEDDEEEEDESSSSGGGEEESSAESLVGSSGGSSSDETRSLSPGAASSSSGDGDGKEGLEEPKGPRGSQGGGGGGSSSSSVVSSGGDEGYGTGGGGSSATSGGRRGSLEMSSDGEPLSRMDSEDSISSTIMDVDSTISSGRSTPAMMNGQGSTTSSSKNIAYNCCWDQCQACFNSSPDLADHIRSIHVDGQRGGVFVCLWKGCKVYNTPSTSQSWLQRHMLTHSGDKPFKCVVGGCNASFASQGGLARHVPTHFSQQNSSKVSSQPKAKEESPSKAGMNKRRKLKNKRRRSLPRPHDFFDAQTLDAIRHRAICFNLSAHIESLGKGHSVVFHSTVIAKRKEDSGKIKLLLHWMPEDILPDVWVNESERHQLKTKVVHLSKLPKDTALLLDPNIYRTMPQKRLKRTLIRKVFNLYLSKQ
Chain of wild-type EZH2 (Q15910 whole entry): as the sequence (Q15910 whole entry A677G) above, with G677A counted along it
Chain of wild-type EZH2 (O75530 whole entry partner): as the sequence (O75530 whole entry partner) above
Chain of wild-type EZH2 (Q15022 whole entry partner): as the sequence (Q15022 whole entry partner) above
Chain of Mutant type EZH2(Y641F) (Q15910 whole entry Y641F): as the sequence (Q15910 whole entry A677G) above, with Y641F, G677A counted along it
Chain of Mutant type EZH2(Y641F) (O75530 whole entry partner): as the sequence (O75530 whole entry partner) above
Chain of Mutant type EZH2(Y641F) (Q15022 whole entry partner): as the sequence (Q15022 whole entry partner) above
Chain of Mutant type EZH2(Y641F) (Q09028 whole entry partner): as the sequence (Q09028 whole entry partner) above
Chain of Mutant type EZH2(Y641F) (Q6ZN18 whole entry partner): as the sequence (Q6ZN18 whole entry partner) above
Chain of Mutant type EZH2(Y641N) (Q15910 whole entry Y641N): as the sequence (Q15910 whole entry A677G) above, with Y641N, G677A counted along it
Chain of Mutant type EZH2(Y641N) (O75530 whole entry partner): as the sequence (O75530 whole entry partner) above
Chain of Mutant type EZH2(Y641N) (Q15022 whole entry partner): as the sequence (Q15022 whole entry partner) above
Chain of Mutant type EZH2(Y641N) (Q09028 whole entry partner): as the sequence (Q09028 whole entry partner) above
Chain of Mutant type EZH2(Y641N) (Q6ZN18 whole entry partner): as the sequence (Q6ZN18 whole entry partner) above
Protocol for wild-type EZH2: 25 μL of reaction solution was transferred to a scintillation plate, which was incubated at room temperature for 1 hour (h) and washed with deionized water and 0.1% Tween 20 for three times. A PerkinElmer liquid scintillation/luminescence counter was used to read the value, and GraphPad Prism 5 was used to calculate the median inhibitory concentration (IC50) of the compounds.

As to `CCN(c1cc(-c2ccc3c(c2)C2(CCOCC2)C(=O)N3C)cc(C(=O)NCc2c(C)cc(C)[nH]c2=O)c1C)C1CCOCC1` [Example 83, N-((4,6-dimethyl-2-oxo-1,2-dihydropyridin-3-yl)methyl)-3-(ethyl(tetrahydro-2H-pyran-4-yl)amino)-2-methyl-5-(1-methyl-2-oxo-2′,3′,5′,6′-tetrahydrospiro[dihydroindole-3,4′-pyran]-5-yl)benzamide], the IC50 in test [1] is 4.76 nM; at wild-type EZH2 it was 1.83 nM; at Mutant type EZH2(Y641N) it was 0.38 nM; at Mutant type EZH2(A677G), 0.91 nM; on Mutant type EZH2(Y641F), 1.48 nM; in test [3], 4.24 nM. Besides, the inhibition in vivo at 100 mg/kg in test [2] is 98%.
